From publication PMC8536124 (International Journal of Molecular Sciences, 2021)

Columns and labels:
A549/ATCC = tested on: A549/ATCC; design: method as in earlier work; conditions: cited from earlier work
EKVX = tested on: EKVX; design: method as in earlier work; conditions: cited from earlier work
HOP-62 = tested on: HOP-62; design: method as in earlier work; conditions: cited from earlier work
HOP-92 = tested on: HOP-92; design: method as in earlier work; conditions: cited from earlier work
NCI-H226 = tested on: NCI-H226; design: method as in earlier work; conditions: cited from earlier work
NCI-H23 = tested on: NCI-H23; design: method as in earlier work; conditions: cited from earlier work
NCI-H460 = tested on: NCI-H460; design: method as in earlier work; conditions: cited from earlier work
NCI-H522 = tested on: NCI-H522; design: method as in earlier work; conditions: cited from earlier work
NSC lung cancer = tested on: NSC lung cancer; design: method as in earlier work; conditions: NSC lung cancer subpanel; read-out: GI50 MG_MID; cited from earlier work
COLO 205 = tested on: COLO 205; design: method as in earlier work; conditions: cited from earlier work
HCC-2998 = tested on: HCC-2998; design: method as in earlier work; conditions: cited from earlier work
HCT-116 = tested on: HCT-116; design: method as in earlier work; conditions: cited from earlier work
HCT-15 = tested on: HCT-15; design: method as in earlier work; conditions: cited from earlier work
HT29 = tested on: HT29; design: method as in earlier work; conditions: cited from earlier work
KM12 = tested on: KM12; design: method as in earlier work; conditions: cited from earlier work
SW-620 = tested on: SW-620; design: method as in earlier work; conditions: cited from earlier work
SF-268 = tested on: SF-268; design: method as in earlier work; conditions: cited from earlier work
SF-295 = tested on: SF-295; design: method as in earlier work; conditions: cited from earlier work
SF-539 = tested on: SF-539; design: method as in earlier work; conditions: cited from earlier work
SNB-19 = tested on: SNB-19; design: method as in earlier work; conditions: cited from earlier work
SNB-75 = tested on: SNB-75; design: method as in earlier work; conditions: cited from earlier work
U251 = tested on: U251; design: method as in earlier work; conditions: cited from earlier work
CNS cancer = tested on: CNS cancer; design: method as in earlier work; conditions: CNS cancer subpanel; read-out: GI50 MG_MID; cited from earlier work
LOX IMVI = tested on: LOX IMVI; design: method as in earlier work; conditions: cited from earlier work
MALME-3M = tested on: MALME-3M; design: method as in earlier work; conditions: cited from earlier work
M14 = tested on: M14; design: method as in earlier work; conditions: cited from earlier work
MDA-MB-435 = tested on: MDA-MB-435; design: method as in earlier work; conditions: cited from earlier work
SK-MEL-2 = tested on: SK-MEL-2; design: method as in earlier work; conditions: cited from earlier work
SK-MEL-28 = tested on: SK-MEL-28; design: method as in earlier work; conditions: cited from earlier work
SK-MEL-5 = tested on: SK-MEL-5; design: method as in earlier work; conditions: cited from earlier work
UACC-257 = tested on: UACC-257; design: method as in earlier work; conditions: cited from earlier work
UACC-62 = tested on: UACC-62; design: method as in earlier work; conditions: cited from earlier work
Melanoma = tested on: Melanoma; design: method as in earlier work; conditions: Melanoma subpanel; read-out: GI50 MG_MID; cited from earlier work
IGROV1 = tested on: IGROV1; design: method as in earlier work; conditions: cited from earlier work
OVCAR-3 = tested on: OVCAR-3; design: method as in earlier work; conditions: cited from earlier work
OVCAR-4 = tested on: OVCAR-4; design: method as in earlier work; conditions: cited from earlier work
OVCAR-5 = tested on: OVCAR-5; design: method as in earlier work; conditions: cited from earlier work
OVCAR-8 = tested on: OVCAR-8; design: method as in earlier work; conditions: cited from earlier work
NCI/ADR-RES = tested on: NCI/ADR-RES; design: method as in earlier work; conditions: cited from earlier work
SK-OV-3 = tested on: SK-OV-3; design: method as in earlier work; conditions: cited from earlier work
Ovarian cancer = tested on: Ovarian cancer; design: method as in earlier work; conditions: Ovarian cancer subpanel; read-out: GI50 MG_MID; cited from earlier work
786-0 = tested on: 786-0; design: method as in earlier work; conditions: cited from earlier work
A498 = tested on: A498; design: method as in earlier work; conditions: cited from earlier work
ACHN = tested on: ACHN; design: method as in earlier work; conditions: cited from earlier work
CAKI-1 = tested on: CAKI-1; design: method as in earlier work; conditions: cited from earlier work
RXF 393 = tested on: RXF 393; design: method as in earlier work; conditions: cited from earlier work
SN12C = tested on: SN12C; design: method as in earlier work; conditions: cited from earlier work
UO-31 = tested on: UO-31; design: method as in earlier work; conditions: cited from earlier work
Renal Cancer = tested on: Renal Cancer; design: method as in earlier work; conditions: Renal cancer subpanel; read-out: GI50 MG_MID; cited from earlier work
PC-3 = tested on: PC-3; design: method as in earlier work; conditions: cited from earlier work
DU-145 = tested on: DU-145; design: method as in earlier work; conditions: cited from earlier work
Prostate cancer = tested on: Prostate cancer; design: method as in earlier work; conditions: Prostate cancer subpanel; read-out: GI50 MG_MID; cited from earlier work
MCF7 = tested on: MCF7; design: method as in earlier work; conditions: cited from earlier work
MDA-MB-31/ATCC = tested on: MDA-MB-31/ATCC; design: method as in earlier work; conditions: cited from earlier work
HS 578T = tested on: HS 578T; design: method as in earlier work; conditions: cited from earlier work
BT-549 = tested on: BT-549; design: method as in earlier work; conditions: cited from earlier work
T-47D = tested on: T-47D; design: method as in earlier work; conditions: cited from earlier work
MDA-MB-468 = tested on: MDA-MB-468; design: method as in earlier work; conditions: cited from earlier work
Breast cancer = tested on: Breast cancer; design: method as in earlier work; conditions: Breast cancer subpanel; read-out: GI50 MG_MID; cited from earlier work
[1] = tested on: NCI-60 cancer cell line panel; design: method as in earlier work; conditions: mean graph midpoint, full panel; read-out: GI50 MG_MID60; cited from earlier work
chorioallantoic membrane = conditions: in vivo
Source text: In this assay, the irritation potential may range from 0 to 21, with 0 being non-irritant and 21 being the most irritant. […] The irritation score was established according to Luepke scale: 0–0.9 indicates non-irritant, 1–4.9 indicates weakly irritant, 5–8.9 indicates moderately irritant, while 9–21 means strongly irritant (Table 6) [88, 89].
The in vivo Hen’s Egg Chorioallantoic Membrane Test (HET-CAM) assay determines a potential irritant effect on the vascular plexus of the chorioallantoic membrane [94]. The HET-CAM method was carried out following ICCVAM recommendations published in November 2016 in Appendix G and adapted to our conditions [88, 95, 96]. Thus, a volume of 300 µL of control or test solution was applied and the modifications produced at the CAM level were monitored by means of stereomicroscopy (Discovery 8 Stereomicroscope, Zeiss), registering significant images (Axio CAM 105 color, Zeiss), before application after 5 min of contact with the samples. All images were processed using Zeiss ZEN software, Gimp 2.8, and ImageJ software.
Negative control was represented by distilled water and solvent control DMSO 0.5%, and positive control by sodium lauryl sulphate (SLS) 0.5% in distillate water. The test substances were tested in concentrations of 1 µM.
Finally, the following reactions were: hemorrhage—H (blood vessel bleeding), vascular lysis—L (disintegration of blood vessels), coagulation—C (intra- or extra-vascular protein denaturizing). A variety of analysis methods may be used to assess irritancy potential of test substances. One analysis method that has been used extensively is an irritation score (IS). The formula used to generate an IS value is:(1) IS=5×301−Sec H/300+7×300−Sec L/300+9×301−Sec C/300 where: H = hemorrhage; L = vessel lysis; C = coagulation; hemorrhage time (Sec H) = onset of hemorrhage reactions on CAM (in seconds); lysis time (Sec L) = onset of vessel lysis on CAM (in seconds); coagulation time (Sec C) = onset of coagulation formation on CAM (in seconds). Means values are obtained. […] The IS values range on a scale between 0 and 21.

Colon Cancer = tested on: Colon Cancer; design: method as in earlier work; conditions: Colon Cancer subpanel; read-out: GI50 MG_MID; cited from earlier work
TK-10 = tested on: TK-10; design: method as in earlier work; conditions: cited from earlier work

COc1cccc2c1C(=O)c1c(O)c3c(c(O)c1C2=O)C[C@@](O)(C(=O)CO)C[C@@H]3O[C@H]1C[C@H](N)[C@H](O)[C@H](C)O1 [DRB, doxorubicin]
GI50 (A549/ATCC): 60 nM
GI50 (EKVX): 410 nM
GI50 (HOP-62): 70 nM
GI50 (HOP-92): 0.1 µM
GI50 (NCI-H226): 0.05 µM
GI50 (NCI-H23): 150 nM
GI50 (NCI-H460): 20 nM
GI50 (NCI-H522): 0.03 µM
GI50 (NSC lung cancer): 0.11 µM
GI50 (COLO 205): 180 nM
GI50 (HCC-2998): 260 nM
GI50 (HCT-116): 80 nM
GI50 (HCT-15): 6.46 µM
GI50 (HT29): 120 nM
GI50 (KM12): 270 nM
GI50 (SW-620): 90 nM
GI50 (SF-268): 100 nM
GI50 (SF-295): 100 nM
GI50 (SF-539): 120 nM
GI50 (SNB-19): 40 nM
GI50 (SNB-75): 0.07 µM
GI50 (U251): 40 nM
GI50 (CNS cancer): 0.08 µM
GI50 (LOX IMVI): 70 nM
GI50 (MALME-3M): 120 nM
GI50 (M14): 180 nM
GI50 (MDA-MB-435): 250 nM
GI50 (SK-MEL-2): 0.17 µM
GI50 (SK-MEL-28): 210 nM
GI50 (SK-MEL-5): 80 nM
GI50 (UACC-257): 140 nM
GI50 (UACC-62): 120 nM
GI50 (Melanoma): 0.15 µM
GI50 (IGROV1): 170 nM
GI50 (OVCAR-3): 390 nM
GI50 (OVCAR-4): 370 nM
GI50 (OVCAR-5): 0.41 µM
GI50 (OVCAR-8): 100 nM
GI50 (NCI/ADR-RES): 7.16 µM
GI50 (SK-OV-3): 0.22 µM
GI50 (Ovarian cancer): 1.26 µM
GI50 (786-0): 130 nM
GI50 (A498): 100 nM
GI50 (ACHN): 80 nM
GI50 (CAKI-1): 950 nM
GI50 (RXF 393): 100 nM
GI50 (SN12C): 70 nM
GI50 (UO-31): 490 nM
GI50 (Renal Cancer): 270 nM
GI50 (PC-3): 320 nM
GI50 (DU-145): 110 nM
GI50 (Prostate cancer): 210 nM
GI50 (MCF7): 30 nM
GI50 (MDA-MB-31/ATCC): 0.51 µM
GI50 (HS 578T): 0.33 µM
GI50 (BT-549): 0.23 µM
GI50 (T-47D): 0.06 µM
GI50 (MDA-MB-468): 50 nM
GI50 (Breast cancer): 0.19 µM
GI50 [1]: 0.38 µM

CCCCCCCCCCCCOS(=O)(=O)[O-].[Na+] [SLS 0.5%, sodium laurylsulphate]
Type of Effect (chorioallantoic membrane): Strong irritant

O=c1[nH]cc(F)c(=O)[nH]1 [Compound 5-FU, 5-fluorouracil]
GI50 (A549/ATCC): 180 nM
GI50 (HOP-62): 390 nM
GI50 (HOP-92): 77.9 µM
GI50 (NCI-H226): 54.7 µM
GI50 (NCI-H23): 330 nM
GI50 (NCI-H460): 50 nM
GI50 (NCI-H522): 7.27 µM
GI50 (NSC lung cancer): 20.1 µM
GI50 (COLO 205): 150 nM
GI50 (HCC-2998): 50 nM
GI50 (HCT-116): 220 nM
GI50 (HCT-15): 0.11 µM
GI50 (HT29): 170 nM
GI50 (KM12): 210 nM
GI50 (SW-620): 920 nM
GI50 (Colon Cancer): 260 nM
GI50 (SF-268): 1620 nM
GI50 (SF-539): 60 nM
GI50 (SNB-19): 3810 nM
GI50 (SNB-75): 78.7 µM
GI50 (U251): 920 nM
GI50 (CNS cancer): 17 µM
GI50 (LOX IMVI): 240 nM
GI50 (MALME-3M): 50 nM
GI50 (M14): 980 nM
GI50 (MDA-MB-435): 70 nM
GI50 (SK-MEL-2): 56.7 µM
GI50 (SK-MEL-28): 1030 nM
GI50 (SK-MEL-5): 460 nM
GI50 (UACC-257): 3550 nM
GI50 (UACC-62): 520 nM
GI50 (Melanoma): 7.07 µM
GI50 (IGROV1): 1220 nM
GI50 (OVCAR-3): 10 nM
GI50 (OVCAR-4): 4430 nM
GI50 (OVCAR-5): 10.9 µM
GI50 (OVCAR-8): 1740 nM
GI50 (NCI/ADR-RES): 0.31 µM
GI50 (SK-OV-3): 21.8 µM
GI50 (Ovarian cancer): 5.77 µM
GI50 (786-0): 720 nM
GI50 (A498): 350 nM
GI50 (ACHN): 270 nM
GI50 (CAKI-1): 70 nM
GI50 (RXF 393): 2610 nM
GI50 (SN12C): 490 nM
GI50 (TK-10): 1120 nM
GI50 (UO-31): 1420 nM
GI50 (Renal Cancer): 880 nM
GI50 (PC-3): 2360 nM
GI50 (DU-145): 360 nM
GI50 (Prostate cancer): 1360 nM
GI50 (MCF7): 70 nM
GI50 (MDA-MB-31/ATCC): 6.6 µM
GI50 (HS 578T): 9.77 µM
GI50 (BT-549): 10.6 µM
GI50 (T-47D): 8.12 µM
GI50 (Breast cancer): 7.03 µM
GI50 [1]: 6.97 µM
